Holding throughout (assay type): in vivo, human
Test [1] is described as follows: single administration of eye drop to a subject who had blurring of vision. The note with it: eye drop comprising 0.12%, after single administration, subject with blurring of vision. The source says:
A subject who had blurring of vision received eye drop comprising 0.12% isopropyl unoprostone. After single administration of it, eye discharge and blurry vision were improved. On the other hand, after single administration of placebo, eye discharge and blurry vision were not improved.

Test [2] is described as follows: eye drop twice a day for seven days to a subject with presbyopia and astigmatism who was difficult to focus on the objects. The note with it: eye drop comprising 0.12% twice a day. The source says:
A subject who was difficult to focus on the objects even using the farsighted glasses received eye drop comprising 0.12% isopropyl unoprostone twice a day. They were presbyopia and astigmatism.

Test [3] is described as follows: single administration of eye drop to a subject who had eye pain. The note with it: eye drop comprising 0.12%, after single administration, subject with eye pain. The source says: A subject who had eye pain received eye drop comprising 0.12% isopropyl unoprostonen. After single administration of it, eye pain was improved. On the other hand, after single administration of placebo, eye pain was not improved.

In the case of `CCCCCCCC(=O)CC[C@@H]1[C@@H](C/C=C\CCCC(=O)OC(C)C)[C@@H](O)C[C@H]1O` [isopropyl unoprostone, (+)-isopropyl (Z)-7-[(1R,2R,3R,5S)-3,5-dihydroxy-2-(3-oxodecyl)cyclopentyl]hept-5-enoate], in test [1], the blurry vision entry was “improved” and the eye discharge result was “improved”. Further, the “ability to focus on the objects (accommodative function)” value in test [2] (after seven days administration, subject with presbyopia and astigmatism) was “able to focus on the objects easier and quicker than before the administration”. Also, in test [2] (seven days administration), the “duration of the improvement in focusing” value is reported as “continued for three weeks”. In addition, the eye pain entry in test [3] is “improved”.

(Values after patent publication US20120259008A1, “METHOD FOR TREATING ASTHENOPIA” (SUCAMPO AG, priority 2011, published 2012).)
